In publication PMC11434749, “In Vitro Interaction of Binuclear Copper Complexes with Liver Drug-Metabolizing Cytochromes P450” (Pharmaceuticals, 2024):

Assays:
CYP2C19 = target: T1, CYP2C19 (Homo sapiens, UniProt P33261); assay: Inhibition of CYP2C19 activity (diazepam N-desmethylation) in human liver microsomes; assay type: in vitro ADME; details: HLM, diazepam 150 µmol·L^−1, preincubation 30 min at 37 °C, Mean ± S.D.
T1 construct: Pooled human liver microsomes were obtained from Biopredic (Rennes, France); tissue Biopredic (Rennes, France); host or cells: pooled human liver microsomes, seventeen donors
T1 sequence (P33261 whole entry): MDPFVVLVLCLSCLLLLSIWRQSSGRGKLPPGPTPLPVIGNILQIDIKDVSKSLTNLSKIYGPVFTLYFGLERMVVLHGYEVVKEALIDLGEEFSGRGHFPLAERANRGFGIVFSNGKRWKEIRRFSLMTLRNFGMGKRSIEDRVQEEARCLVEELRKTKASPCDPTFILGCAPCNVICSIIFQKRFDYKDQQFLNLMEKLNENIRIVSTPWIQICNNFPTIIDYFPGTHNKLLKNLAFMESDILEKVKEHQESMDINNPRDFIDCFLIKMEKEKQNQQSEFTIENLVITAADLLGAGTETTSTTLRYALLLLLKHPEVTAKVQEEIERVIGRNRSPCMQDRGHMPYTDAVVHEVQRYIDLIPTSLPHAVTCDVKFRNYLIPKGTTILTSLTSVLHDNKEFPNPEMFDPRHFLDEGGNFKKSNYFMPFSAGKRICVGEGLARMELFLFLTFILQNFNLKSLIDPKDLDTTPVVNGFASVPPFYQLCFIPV
Protocol: (§1) The following enzyme assays were performed to determine the activities of specific CYP enzymes: CYP1A2, 7-ethoxyresorufin O-deethylation; CYP2A6, coumarin 7-hydroxylation; CYP2B6, 7-ethoxy-4-(trifluoromethyl) coumarin (EFC) O-deethylation; CYP2C8 paclitaxel 6α-hydroxylation; CYP2C9, diclofenac 4′-hydroxylation; CYP2C19, diazepam N-desmethylation; CYP2D6, bufuralol 1′-hydroxylation; CYP2E1, chlorzoxazone 6-hydroxylation; and CYP3A4/5, testosterone 6β-hydroxylation.
The incubation mixtures contained 100 mmol·L^−1 potassium phosphate buffer (pH 7.4), an NADPH-generating system (0.8 mmol·L^−1 NADP^+, 5.8 mmol·L^−1 isocitrate, 0.3 unit/mL of isocitrate dehydrogenase, and 8 mmol·L^−1 MgCl2), HLM, and an individual probe substrate.
For the determination of metabolites formed from specific substrates, a Prominence LC-20A HPLC system (Shimadzu, Kyoto, Japan) with UV detection or fluorescence detection was used (see Table 2). As a rule, reversed-phase chromatography was applied with Merck (Darmstadt, Germany) LiChroCART 250 × 4 mm (i.d.) cartridges packed with a LiChrospher RP-18 silica gel (5 µm particle size) with C-18 reversed-phase properties; a 4 × 4 mm (i.d.) guard column was also used. For the composition of the mobile phase in the respective analyses, see the original reference.
Initially, for each enzyme assay, a preliminary experiment was carried out to determine Km and Vmax to obtain the appropriate concentration of the specific substrates for the inhibition experiments (the substrate concentration was chosen in the range corresponding to the value of the Km for each particular reaction). Data were analyzed using the Sigma plot software, as mentioned above, with spectral studies. Inhibition experiments were performed with a concentration range of the tested complexes from 0.78 to 50 µmol·L^−1. The concentration range used here is in accordance with the MIC (see above) and is adequate. The experimental conditions were the same as for the determination of individual CYP activities (Table 2); the assays were performed in duplicates, with individual values differing by less than 20%. Preincubation of the reaction mixtures with the tested complexes for 30 min at 37 °C was carried out in all assays. In all cases, the inhibition of individual CYP activities was evaluated by plotting the respective remaining activity against the inhibitor concentration.

E. faecalis = system: E. faecalis; set-up: method as in doi:10.1016/j.ica.2022.121273; details: Gram-positive; cited from earlier work
CYP2E1 = target: T2, CYP2E1 (Homo sapiens, UniProt P05181); assay: Inhibition of CYP2E1 activity (chlorzoxazone 6-hydroxylation) in human liver microsomes; assay type: in vitro ADME; details: HLM, chlorzoxazone 30 µmol·L^−1, preincubation 30 min at 37 °C, Mean ± S.D.
T2 construct: Pooled human liver microsomes were obtained from Biopredic (Rennes, France); tissue Biopredic (Rennes, France); host or cells: pooled human liver microsomes, seventeen donors
T2 sequence (P05181 whole entry): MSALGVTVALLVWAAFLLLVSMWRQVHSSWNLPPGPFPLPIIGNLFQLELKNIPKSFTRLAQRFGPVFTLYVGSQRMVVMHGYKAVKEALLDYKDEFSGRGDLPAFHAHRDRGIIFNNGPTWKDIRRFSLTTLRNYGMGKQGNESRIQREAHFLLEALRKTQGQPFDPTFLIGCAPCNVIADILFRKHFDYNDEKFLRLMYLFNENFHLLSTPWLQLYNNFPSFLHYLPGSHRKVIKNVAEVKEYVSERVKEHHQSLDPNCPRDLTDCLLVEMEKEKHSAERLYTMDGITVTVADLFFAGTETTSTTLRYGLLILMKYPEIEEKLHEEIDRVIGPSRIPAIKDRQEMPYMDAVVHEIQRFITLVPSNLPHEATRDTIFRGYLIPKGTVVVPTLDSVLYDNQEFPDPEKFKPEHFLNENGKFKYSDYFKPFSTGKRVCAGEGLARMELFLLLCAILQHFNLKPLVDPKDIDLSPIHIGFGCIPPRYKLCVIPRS
Protocol: as §1, with “6β-hydroxylation. […]” for “6β-hydroxylation.”
(§2) For the determination of metabolites formed from specific substrates, a Prominence LC-20A HPLC system (Shimadzu, Kyoto, Japan) with UV detection or fluorescence detection was used (see Table 2). […]
(§3) Initially, for each enzyme assay, a preliminary experiment was carried out to determine Km and Vmax to obtain the appropriate concentration of the specific substrates for the inhibition experiments (the substrate concentration was chosen in the range corresponding to the value of the Km for each particular reaction). Data were analyzed using the Sigma plot software, as mentioned above, with spectral studies. […] In all cases, the inhibition of individual CYP activities was evaluated by plotting the respective remaining activity against the inhibitor concentration.

CYP2B6 = target: T3, CYP2B6 (Homo sapiens, UniProt P20813); assay: Inhibition of CYP2B6 activity (EFC O-deethylation) in human liver microsomes; assay type: in vitro ADME; details: HLM, EFC 15 µmol·L^−1, preincubation 30 min at 37 °C, Mean ± S.D.
T3 construct: Pooled human liver microsomes were obtained from Biopredic (Rennes, France); tissue Biopredic (Rennes, France); host or cells: pooled human liver microsomes, seventeen donors
T3 sequence (P20813 1-491): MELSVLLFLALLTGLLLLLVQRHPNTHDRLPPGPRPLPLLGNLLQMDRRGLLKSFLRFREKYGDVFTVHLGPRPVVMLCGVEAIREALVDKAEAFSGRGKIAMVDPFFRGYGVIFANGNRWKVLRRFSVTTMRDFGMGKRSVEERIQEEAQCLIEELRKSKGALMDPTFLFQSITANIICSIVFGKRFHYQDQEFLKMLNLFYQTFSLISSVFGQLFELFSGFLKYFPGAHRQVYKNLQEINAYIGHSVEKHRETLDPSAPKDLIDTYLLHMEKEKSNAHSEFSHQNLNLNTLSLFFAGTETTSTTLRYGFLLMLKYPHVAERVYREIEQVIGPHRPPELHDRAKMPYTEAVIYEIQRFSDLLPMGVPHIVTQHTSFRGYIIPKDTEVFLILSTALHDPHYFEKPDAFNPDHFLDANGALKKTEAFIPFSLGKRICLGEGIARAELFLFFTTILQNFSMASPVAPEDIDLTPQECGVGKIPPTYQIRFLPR
Protocol: as §1, with “6β-hydroxylation. […]” for “6β-hydroxylation.”
as §2, §3

CYP1A2 = target: T4, CYP1A2 (Homo sapiens, UniProt P05177); assay: Inhibition of CYP1A2 activity (7-ethoxyresorufin O-deethylation) in human liver microsomes; assay type: in vitro ADME; details: HLM, 7-ethoxyresorufin 1.3 µmol·L^−1, preincubation 30 min at 37 °C, Mean ± S.D.
T4 construct: Pooled human liver microsomes were obtained from Biopredic (Rennes, France); tissue Biopredic (Rennes, France); host or cells: pooled human liver microsomes, seventeen donors
T4 sequence (P05177 1-516): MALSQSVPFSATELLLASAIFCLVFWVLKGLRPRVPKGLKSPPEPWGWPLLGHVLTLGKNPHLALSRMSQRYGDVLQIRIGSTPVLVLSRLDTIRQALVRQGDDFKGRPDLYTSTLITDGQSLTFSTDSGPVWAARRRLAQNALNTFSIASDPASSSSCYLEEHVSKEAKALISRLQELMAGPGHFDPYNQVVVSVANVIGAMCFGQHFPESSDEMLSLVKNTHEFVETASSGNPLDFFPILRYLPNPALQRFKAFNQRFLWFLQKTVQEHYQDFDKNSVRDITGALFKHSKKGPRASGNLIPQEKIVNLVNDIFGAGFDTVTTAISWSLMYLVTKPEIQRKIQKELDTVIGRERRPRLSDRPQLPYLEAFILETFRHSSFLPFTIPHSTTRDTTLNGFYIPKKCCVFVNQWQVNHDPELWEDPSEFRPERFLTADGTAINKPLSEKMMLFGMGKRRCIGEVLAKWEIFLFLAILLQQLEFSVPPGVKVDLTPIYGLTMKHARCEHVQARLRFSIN
Protocol: as §1, with “6β-hydroxylation. […]” for “6β-hydroxylation.”
as §2, §3

CYP2A6 = target: T5, CYP2A6 (Homo sapiens, UniProt P11509); assay: Inhibition of CYP2A6 activity (coumarin 7-hydroxylation) in human liver microsomes; assay type: in vitro ADME; details: HLM, coumarin 15 µmol·L^−1, preincubation 30 min at 37 °C, Mean ± S.D.
T5 construct: Pooled human liver microsomes were obtained from Biopredic (Rennes, France); tissue Biopredic (Rennes, France); host or cells: pooled human liver microsomes, seventeen donors
T5 sequence (P11509 1-494): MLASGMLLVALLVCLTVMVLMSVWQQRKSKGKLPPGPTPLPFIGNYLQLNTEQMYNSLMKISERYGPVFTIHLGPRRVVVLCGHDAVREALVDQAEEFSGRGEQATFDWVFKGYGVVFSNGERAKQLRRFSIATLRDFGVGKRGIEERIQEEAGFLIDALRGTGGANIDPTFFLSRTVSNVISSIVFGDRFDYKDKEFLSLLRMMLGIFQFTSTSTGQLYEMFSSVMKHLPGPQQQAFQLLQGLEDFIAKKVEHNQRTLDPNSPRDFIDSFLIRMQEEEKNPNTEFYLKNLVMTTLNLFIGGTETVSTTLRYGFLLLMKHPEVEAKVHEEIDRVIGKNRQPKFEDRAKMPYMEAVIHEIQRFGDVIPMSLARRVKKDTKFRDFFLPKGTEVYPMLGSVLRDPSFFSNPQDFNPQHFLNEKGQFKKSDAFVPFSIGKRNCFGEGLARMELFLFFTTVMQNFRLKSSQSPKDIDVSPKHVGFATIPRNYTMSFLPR
Protocol: as §1, with “6β-hydroxylation. […]” for “6β-hydroxylation.”
as §2, §3

CN(C)CCN(C)CCN(C)C.CN(C)CCN(C)CCN(C)C.O.O.O=C([O-])/C=C/C(=O)[O-].[Cu+2].[Cu+2].[O-][Cl+3]([O-])([O-])[O-].[O-][Cl+3]([O-])([O-])[O-] [Complex No. 5, [Cu2(μ-fu)(pmdien)2(H2O)2](ClO4)2]
IC50 (CYP2C19): 2.53 ± 0.59 µM
IC50 (CYP2C19; listed as complex No. 5): ~2.5 µM
MIC E. faecalis (E. faecalis): 4.22 µg/mL
IC50 (CYP2E1): 12.5 ± 0.18 µM
IC50 (CYP2B6): 24.8 ± 0.33 µM
IC50 (CYP1A2): 24.97 ± 0.22 µM
IC50 (CYP2A6): 24.9 ± 0.25 µM

CN(C)CCN(C)CCN(C)C.CN(C)CCN(C)CCN(C)C.O.O.O=C([O-])CCSSCCC(=O)[O-].[Cu+2].[Cu+2].[O-][Cl+3]([O-])([O-])[O-].[O-][Cl+3]([O-])([O-])[O-] [Complex No. 6, [Cu2(μ-dtdp)(pmdien)2(H2O)2](ClO4)2]
IC50 (CYP2C19): 6.43 ± 0.63 µM
IC50 (CYP2C19; listed as complex No. 6): ~6.4 µM
MIC E. faecalis (E. faecalis): 8.44 µg/mL
IC50 (CYP2E1): 6.59 ± 0.18 µM
IC50 (CYP2B6): 13.3 ± 0.54 µM
IC50 (CYP1A2): 25.2 ± 0.29 µM
IC50 (CYP2A6): 25.13 ± 0.13 µM
